Values quoted from earlier work, collected in patent publication US12178814B2, “Pharmaceutical composition” (ASTELLAS PHARMA INC., priority 2019, dated 2024).

System: EML4 (Echinoderm microtubule associated protein like-4)-ALK (Anaplastic lymphoma kinase) fusion protein
Conditions: reported in WO2010/128659, WO2017/006855

For `CCc1nc(C(N)=O)c(Nc2ccc(N3CCC(N4CCN(C)CC4)CC3)c(OC)c2)nc1NC1CCOCC1` [gilteritinib, 6-Ethyl-3-{3-methoxy-4-[4-(4-methylpiperazin-1-yl)piperidin-1-yl]anilino}-5-[(oxan-4-yl)amino]pyrazine-2-carboxamide], the “inhibitory activity of a kinase activity of EML4-ALK fusion protein” value is given as “inhibitory activity”.
